These results are taken from patent US6538137B1 (Teijin Limited, priority 1999, dated 2003).

For this assay, the target named is human FXa (Homo sapiens, UniProt P00742). The experiment in a line: Determination of inhibitory activity of activated blood coagulation factor X (FXa). The assay is classed as biochemical. The settings on record: substrate S-2765, Tris buffer pH 8.4, incubation 30 minutes, absorbance A405; read-out: FXa inhibitory activity, 50% inhibitory activity (IC50). As to the method: A test substance was dissolved in water or water containing organic solvents (DMSO, ethanol or methanol) at a suitable concentration to provide a specimen. To 70 μl each of the resulting specimens serially diluted with water, were added 90 μl of a 100 mM Tris buffer (pH 8.4), 20 μl of a 50 mM Tris buffer (pH 8.4) containing 50 mU/ml human FXa and 2 mM of a substrate (S-2765 manufactured by Daiichi Pure Chemicals Co., Ltd.). Incubation was carried out for 30 minutes. To the incubated mixture, was then added 50 μl of a 50% acetic acid. The absorbance (A405) was determined. A mixture prepared by adding the Tris buffer instead of the FXa was used as a blank, and a mixture containing water instead of the specimen was used as a control. The 50% inhibitory activity (IC50) was determined as the indication of FXa inhibitory activity.
Chain of human FXa (P00742 235-488 limits assumed): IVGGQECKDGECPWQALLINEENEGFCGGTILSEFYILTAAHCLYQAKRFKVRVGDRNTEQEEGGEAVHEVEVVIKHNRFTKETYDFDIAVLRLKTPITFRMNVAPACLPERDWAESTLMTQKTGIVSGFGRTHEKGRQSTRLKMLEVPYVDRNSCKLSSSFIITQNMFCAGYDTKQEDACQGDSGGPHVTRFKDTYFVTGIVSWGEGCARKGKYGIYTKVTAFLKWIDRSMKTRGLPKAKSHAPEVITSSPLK
Chain of human FXa (P00742 41-179 partner limits assumed): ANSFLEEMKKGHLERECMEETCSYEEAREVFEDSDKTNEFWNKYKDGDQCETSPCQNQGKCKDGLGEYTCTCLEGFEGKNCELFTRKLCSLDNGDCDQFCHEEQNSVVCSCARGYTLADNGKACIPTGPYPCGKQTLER

The structures appear in SMILES notation.

With `CC(C)N1CCC(COCc2cc(C(=O)O)cc(-c3cccc(C(=N)N)c3)c2)CC1`, the concentration for half-maximal inhibition (IC50) lay in the range of 100 to 1000 nM.
Under `COC(=O)c1cc(COCC2CCNCC2)cc(-c2cccc(C(=N)N)c2)c1` [Reference Example 3, methyl 3-(3-amidinophenyl)-5-[(4-piperidinyl)methoxymethyl]-5-benzoate] stands 100 to 1000 nM.
As for `COC(=O)c1cc(COCC2CCN(C(C)C)CC2)cc(-c2cccc(C(=N)N)c2)c1` [Reference Example 4, methyl 3-(3-amidinophenyl)-5-[(N-isopropyl-4-piperidinyl)methoxymethyl]-5-benzoate], the IC50 lay in the range of 100 to 1000 nM.
Under `COC(=O)c1cc(COCC2CCN(C(C)=O)CC2)cc(-c2cccc(C(=N)N)c2)c1` [Reference Example 5, methyl 3-(3-amidinophenyl)-5-[(N-acetylpiperidin-4-yl)methoxymethyl]-5-benzoate] stands 100 to 1000 nM.
The value for `COC(=O)c1cc(CNCC2CCN(C(C)=N)CC2)cc(-c2cccc(C(=N)N)c2)c1` [Reference Example 6, methyl 3-(3-amidinophenyl)-5-[(((N-acetimidoylpiperidin-4-yl)methyl)amino)methyl]benzoate] was 10 to 100 nM.
Take `COC(=O)c1cc(COCC2CCN(C(C)=N)CC2)cc(-c2cccc(C(=N)N)c2)c1` [Reference Example 7, methyl 3-(3-amidinophenyl)-5-[(1-acetimidoyl-4-piperidinyl)methoxymethyl]benzoate]: the IC50 is 10 to 100 nM.

For orientation: IC50 means the concentration needed to halve the response being measured.
